This is an account of results in paper PMC3769651 (Scientific Reports, 2013).

SMILES strings stand for the structures.

This test has as its target vchNADK (Vibrio cholerae, UniProt Q9KTP8, K2E/N76T).

Regarding `NC(=O)c1ccc[n+]([C@@H]2O[C@H](COP(=O)(O)OP(=O)(O)OC[C@H]3O[C@@H](n4cnc5c(N)ncnc54)[C@H](OP(=O)(O)O)[C@@H]3O)[C@@H](O)[C@H]2O)c1` [NADP^+], the “% residual activity at 0.20 mM” value was determined as 39%.
